The first test relates to Green peach aphids (Myzus Persicae Sulzer). The test can be described thus: bioactivity test against green peach aphid, airbrush foliar spray. In kind it is in vivo. The note with it: 100 ppm, death rate after 48 hrs. On the procedure:
Compounds were dissolved in mixed solvent (acetone:methanol=1:1), and diluted to required concentration with water containing 0.1% of tween 80.
Diamond back moth, armyworm, peach aphid and carmine spider mite were used as targets and the method of spraying by airbrush was used for determination of insecticidal biassays.
Method: Filter papers were put in culture dishes (Diameter=6 cm), and water was dripped on filter papers for preserving moisture. Green peach aphids (Myzus Persicae Sulzer) were maintained on cabbage. Leaves (Diameter=3 cm) of approximately 15-30 aphids were put in the culture dishes. Bioactivity tests were used the method of Airbrush Foliar Spray, pressure=10 psi (0.7 kg/cm2), spray volume=0.5 mL. The studies were conducted at […] 25±1 C in incubator cabinets with 60±5% RH. Survey the survival aphids after 48 hrs and calculate the death rates.
Consider `Cc1ncnc(NCCc2ccc(Oc3ncc(C(F)(F)F)cc3Cl)c(Cl)c2)c1Cl` [Compound I-1414], for which the “control (test results against green peach aphid)” value was 100%.
Turning to `Cc1ncnc(NCCc2ccc(Oc3ccc(C(F)(F)F)cc3Cl)nc2)c1Cl` [III-121], the “control (test results against green peach aphid)” value was determined as 100%.

The test is the same for the next values; noted with them: 600 ppm, death rate after 48 hrs.
Regarding `Cc1ncnc(NCCc2ccc(Oc3ncc(C(F)(F)F)cc3Cl)c(Cl)c2)c1Cl` [Compound I-1414], the “control (test results against green peach aphid)” value is 100%.
As for `Cc1ncnc(NCCc2ccc(Oc3cc(Cl)cc(Cl)c3)cc2)c1Cl` [II-25], the “control (test results against green peach aphid)” value is 100%.
Consider `Cc1ncnc(NCCc2ccc(Oc3ccc([N+](=O)[O-])c(Cl)c3C)cc2)c1Cl` [II-236], for which the “control (test results against green peach aphid)” value is 100%.
Consider `Cc1ncnc(NCCc2ccc(Oc3ccc(C(F)(F)F)cc3Cl)nc2)c1Cl` [III-121], for which the “control (test results against green peach aphid)” value came to 100%.
The same measure, in the same setting: for `CCc1ncnc(NCCc2ccc(Oc3cc(Cl)ccc3Cl)nc2)c1Cl` [III-263] the value was 100%.

For a further test, the system named is wheat powdery mildew. The test can be described thus: protectant activity in vivo against wheat powdery mildew. The note with it: 100 ppm.
Take `Cc1ncnc(NCCc2ccc(Oc3ncc(C(F)(F)F)cc3Cl)c(Cl)c2)c1Cl` [Compound I-1414]: the “protectant activity against wheat powdery mildew in vivo” value is reported as 100%.
Regarding `Cc1ncnc(NCCc2ccc(Oc3ccc(C(F)(F)F)cc3Cl)nc2)c1Cl` [III-121], the “protectant activity against wheat powdery mildew in vivo” value came out at 100%.

The same test, now with this note: 400 ppm.
Regarding `Cc1ncnc(NCCc2ccc(Oc3ncc(C(F)(F)F)cc3Cl)c(Cl)c2)c1Cl` [Compound I-1414], the “protectant activity against wheat powdery mildew in vivo” value was determined as 100%.
`Cc1ncnc(NCCc2ccc(Oc3cc(Cl)cc(Cl)c3)cc2)c1Cl` [II-25]: the “protectant activity against wheat powdery mildew in vivo” value is listed as 100%.
As to `O=[N+]([O-])c1cc(Cl)ccc1Oc1ccc(CCNc2ncnc(C(F)F)c2Cl)cc1` [II-9058], the “protectant activity against wheat powdery mildew in vivo” value is 100%.
As to `Cc1ncnc(NCCc2ccc(Oc3ccc(C(F)(F)F)cc3Cl)nc2)c1Cl` [III-121], the “protectant activity against wheat powdery mildew in vivo” value was found to be 100%.
`CCc1ncnc(NCCc2ccc(Oc3cc(Cl)ccc3Cl)nc2)c1Cl` [III-263]: the “protectant activity against wheat powdery mildew in vivo” value is 100%.
Regarding `Cc1nc(Cl)c(Cl)c(NCCc2ccc(Oc3cccc(C(F)(F)F)c3)nc2)n1` [III-2541], the “protectant activity against wheat powdery mildew in vivo” value came to 100%.

A further test concerns cucumber downy mildew. Put plainly: protectant activity in vivo against cucumber downy mildew. The note with it: 6.25 mg/L; protectant activity.
For `CCc1ncnc(NCCc2ccc(Oc3cc(Cl)ccc3Cl)nc2)c1Cl` [III-263], the “control effect against cucumber downy mildew (%)” value (“control effect … (%)” below) worked out at 70%.

The same test, now with this note: 12.5 mg/L; protectant activity.
As to `CCc1ncnc(NCCc2ccc(Oc3cc(Cl)ccc3Cl)nc2)c1Cl` [III-263], the “control effect … (%)” value is reported as 98%.

The test is the same for the next values; noted with them: 25 mg/L; protectant activity.
As for `Cc1ncnc(NCCc2ccc(Oc3ccc([N+](=O)[O-])c(Cl)c3C)cc2)c1Cl` [II-236], the “control effect … (%)” value amounted to 100%.
On the same count and under the same terms, next, `Cc1ncnc(NCCc2ccc(Oc3ccc(C(F)(F)F)cc3Cl)nc2)c1Cl` [III-121]: 100%; `CCc1ncnc(NCCc2ccc(Oc3cc(Cl)ccc3Cl)nc2)c1Cl` [III-263]: 100%.

The same test, now with this note: 50 mg/L; protectant activity.
Take `Cc1ncnc(NCCc2ccc(Oc3ccc([N+](=O)[O-])c(Cl)c3C)cc2)c1Cl` [II-236]: the “control effect … (%)” value came out at 100%.
As to `Cc1ncnc(NCCc2ccc(Oc3ccc(C(F)(F)F)cc3Cl)nc2)c1Cl` [III-121], the “control effect … (%)” value was 100%.
With `CCc1ncnc(NCCc2ccc(Oc3cc(Cl)ccc3Cl)nc2)c1Cl` [III-263], the “control effect … (%)” value came to 100%.

The test is the same for the next values; noted with them: 100 mg/L; protectant activity.
`Cc1ncnc(NCCc2ccc(Oc3ccc([N+](=O)[O-])c(Cl)c3C)cc2)c1Cl` [II-236]: the “control effect … (%)” value amounted to 100%.
As for `Cc1ncnc(NCCc2ccc(Oc3ccc(C(F)(F)F)cc3Cl)nc2)c1Cl` [III-121], the “control effect … (%)” value was 100%.
Take `CCc1ncnc(NCCc2ccc(Oc3cc(Cl)ccc3Cl)nc2)c1Cl` [III-263]: the “control effect … (%)” value worked out at 100%.

Staying with this test, now noted: 400 mg/L; protectant activity.
On to `Cc1ncnc(NCCc2ccc(Oc3ccc([N+](=O)[O-])c(Cl)c3C)cc2)c1Cl` [II-236], for which the “control effect … (%)” value came to 100%.
Still for that read-out and setting: next, `Cc1ncnc(NCCc2ccc(Oc3ccc(C(F)(F)F)cc3Cl)nc2)c1Cl` [III-121]: 100%.
In the case of `CCc1ncnc(NCCc2ccc(Oc3cc(Cl)ccc3Cl)nc2)c1Cl` [III-263], the “control effect … (%)” value stood at 100%.

The test is the same for the next values; noted with them: 25 ppm.
On to `Cc1ncnc(NCCc2ccc(Oc3ccc([N+](=O)[O-])c(Cl)c3C)cc2)c1Cl` [II-236], for which the “protectant activity against cucumber downy mildew in vivo” value came to 100%.
Consider `Cc1ncnc(NCCc2ccc(Oc3ccc(C(F)(F)F)cc3Cl)nc2)c1Cl` [III-121], for which the “protectant activity against cucumber downy mildew in vivo” value is recorded as 100%.
The same measure, in the same setting: for `CCc1ncnc(NCCc2ccc(Oc3cc(Cl)ccc3Cl)nc2)c1Cl` [III-263] the value was 100%.

The same test, now with this note: 50 ppm.
As to `Cc1ncnc(NCCc2ccc(Oc3ccc([N+](=O)[O-])c(Cl)c3C)cc2)c1Cl` [II-236], the “protectant activity against cucumber downy mildew in vivo” value came out at 100%.
Take `Cc1ncnc(NCCc2ccc(Oc3ccc(C(F)(F)F)cc3Cl)nc2)c1Cl` [III-121]: the “protectant activity against cucumber downy mildew in vivo” value came to 100%.
On to `CCc1ncnc(NCCc2ccc(Oc3cc(Cl)ccc3Cl)nc2)c1Cl` [III-263], for which the “protectant activity against cucumber downy mildew in vivo” value came out at 100%.
As to `Cc1nc(Cl)c(Cl)c(NCCc2ccc(Oc3cccc(C(F)(F)F)c3)nc2)n1` [III-2541], the “protectant activity against cucumber downy mildew in vivo” value was 100%.

The same test, now with this note: 100 ppm.
Consider `Cc1ncnc(NCCc2ccc(Oc3ccc([N+](=O)[O-])c(Cl)c3C)cc2)c1Cl` [II-236], for which the “protectant activity against cucumber downy mildew in vivo” value stood at 100%.
The same measure, in the same setting: next, `Cc1ncnc(NCCc2ccc(Oc3ccc(C(F)(F)F)cc3Cl)nc2)c1Cl` [III-121]: 100%.
On the same count and under the same terms, next, `CCc1ncnc(NCCc2ccc(Oc3cc(Cl)ccc3Cl)nc2)c1Cl` [III-263]: 100%.
With `Cc1nc(Cl)c(Cl)c(NCCc2ccc(Oc3cccc(C(F)(F)F)c3)nc2)n1` [III-2541], the “protectant activity against cucumber downy mildew in vivo” value was determined as 100%.

Staying with this test, now noted: 400 ppm.
`Cc1ncnc(NCCc2ccc(Oc3cc(Cl)cc(Cl)c3)cc2)c1Cl` [II-25]: the “protectant activity against cucumber downy mildew in vivo” value stood at 100%.
Regarding `Cc1ncnc(NCCc2ccc(Oc3c([N+](=O)[O-])cc(Cl)cc3C(F)(F)F)cc2)c1Cl` [II-202], the “protectant activity against cucumber downy mildew in vivo” value was found to be 100%.
The same measure, in the same setting: for `Cc1ncnc(NCCc2ccc(Oc3ccc([N+](=O)[O-])c(Cl)c3C)cc2)c1Cl` [II-236] the value was 100%.
Still for that read-out and setting: for `O=[N+]([O-])c1cc(Cl)ccc1Oc1ccc(CCNc2ncnc(C(F)F)c2Cl)cc1` [II-9058] the value was 100%.
Take `Cc1ncnc(NCCc2ccc(Oc3ccc(C(F)(F)F)cc3Cl)nc2)c1Cl` [III-121]: the “protectant activity against cucumber downy mildew in vivo” value is listed as 100%.
Regarding `CCc1ncnc(NCCc2ccc(Oc3cc(Cl)ccc3Cl)nc2)c1Cl` [III-263], the “protectant activity against cucumber downy mildew in vivo” value was determined as 100%.
On to `CCc1ncnc(NCCc2ccc(Oc3ccc(Cl)cc3C)nc2)c1Cl` [III-290], for which the “protectant activity against cucumber downy mildew in vivo” value was determined as 100%.
As for `Cc1nc(Cl)c(Cl)c(NCCc2ccc(Oc3cccc(C(F)(F)F)c3)nc2)n1` [III-2541], the “protectant activity against cucumber downy mildew in vivo” value was determined as 100%.

The values above are taken from US9770026B2, “Substituted pyrimidine compound and uses thereof” (Shenyang Sinochem Agrochemicals R&D Co., Ltd., priority 2012, dated 2017).
